Legend:
[1] = Pharmacokinetic study of levosimendan capsules, single oral dose, in healthy volunteers; format: in vivo, human; conditions: from oral compositions comprising substantially pure crystalline polymorphic form I
Description: Pharmacokinetic parameters of two different polymorphs, (I) and (II), of levosimendan in healthy volunteers after a single oral dose of 2 mg of levosimendan capsule was studied. The formulations of hard gelatin capsules (size 3) A and B were the following:
The small value of Tmax indicates rapid absorption of the drug into plasma.

intestinal bacteria = conditions: oral administration; by intestinal bacteria; cited from earlier work
troponin = conditions: racemic mixture; cited from earlier work

Row | SMILES | dissolution and absorption into plasma [1] | metabolization in the lower gastrointestinal tract (intestinal bacteria) | calcium dependent binding to troponin (troponin)
1 | CC1CC(=O)NN=C1c1ccc(NN=C(C#N)C#N)cc1 (single isomer, unassigned; (-)) [levosimendan, (−)-[[4-(1,4,5,6-tetrahydro-4-methyl-6-oxo-3-pyridazinyl)phenyl]hydrazono]propanedinitrile] | rapidly dissolved and absorbed into plasma | susceptible to metabolization in the lower gastrointestinal tract by intestinal bacteria | –
2 | CC1CC(=O)NN=C1c1ccc(NN=C(C#N)C#N)cc1 (racemic) [compound (I), [[4-(1,4,5,6-tetrahydro-4-methyl-6-oxo-3-pyridazinyl)phenyl]hydrazono]propanedinitrile] | – | – | significant calcium dependent binding to troponin

Source: US6355269B1, “Oral compositions of levosimendan” (Orion Corporation, priority 1997, dated 2002)
